From US12281149B2, “Modulators of G-protein coupled receptors” (priority 2021, dated 2025)
*1 amine or outer side, *2 acyl side, *3 side chain or, on linkers, in order; H or OH if unused. Where a SMILES comes first, the peptide text is derived from it. Side-chain parts run from the residue outwards. [ ]: non-standard residue; d: D form. The star is where a group is joined. Isobutyryl(2-(3-CN-5-F-Ph)) = CC(C)(C(=O)*)c1cc(F)cc(C#N)c1; C20 diacid = O=C(O)CCCCCCCCCCCCCCCCCCC(=O)*; γGlu = O=C(O)[C@H](CCC(=O)[*:2])N[*:1]; X9 = CC(C)(C(=O)*)c1cc(F)cc(C(=O)O)c1; X59 = COc1ccc(C2(C(=O)*)CCCC2)cc1; X25 = CC(C)(C(=O)*)n1cc(F)cn1; AEEA = NCCOCCOCC(=O)O; Aib = CC(C)(N)C(=O)O; βAla = NCCC(=O)O

What was measured:
Assay type in all cases: cell-based
[1] = target: T1, GIP receptor (Homo sapiens, UniProt P48546); experiment: HitHunter cAMP assay, GIP receptor; conditions: for EC50: CHO cells stably expressing GIP receptor, cAMP accumulation, 30 min, read-out: EC50 GIP-1R; for Emax: CHO cells, cAMP, normalized to maximum signal from GIP (high) and DMSO (low), read-out: Emax GIP-1R
T1 sequence (P48546 22-466): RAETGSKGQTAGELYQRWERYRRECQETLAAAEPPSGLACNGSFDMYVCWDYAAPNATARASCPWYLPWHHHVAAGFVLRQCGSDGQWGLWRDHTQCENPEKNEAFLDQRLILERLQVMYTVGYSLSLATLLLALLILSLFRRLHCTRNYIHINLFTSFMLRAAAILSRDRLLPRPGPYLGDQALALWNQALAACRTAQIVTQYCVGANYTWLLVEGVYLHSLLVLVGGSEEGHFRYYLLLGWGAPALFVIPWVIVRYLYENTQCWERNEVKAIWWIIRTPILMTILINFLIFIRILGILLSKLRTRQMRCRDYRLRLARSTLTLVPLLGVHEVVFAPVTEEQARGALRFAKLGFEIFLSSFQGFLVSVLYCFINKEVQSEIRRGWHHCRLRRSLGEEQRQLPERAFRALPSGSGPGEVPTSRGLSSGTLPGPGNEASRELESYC

[2] = target: T1, GIP receptor; experiment: PathHunter β-arrestin assay, GIP receptor; parameters: host or cells: PathHunter CHO-K1 GIPR β-Arrestin Cell Line; conditions: β-arrestin-2 recruitment, PathHunter CHO-K1 GIPR β-Arrestin Cell Line, 90 min at 37° C.; normalized to GIP; read-out: GIPR β Arrestin EC50
[3] = target: T2, GLP-1 receptor (Homo sapiens, UniProt P43220); experiment: PathHunter β-arrestin assay, GLP-1 receptor; parameters: host or cells: PathHunter CHO-K1 GLP1R β-Arrestin Cell Line; conditions: β-arrestin-2 recruitment, PathHunter CHO-K1 GLP1R β-Arrestin Cell Line, 90 min at 37° C.; normalized to GLP-1; read-out: GLP-1R β Arrestin EC50
[4] = target: T2, GLP-1 receptor; experiment: HitHunter cAMP assay, GLP-1 receptor; conditions: for EC50: CHO cells stably expressing human GLP-1 receptor, cAMP accumulation, 30 min, read-out: EC50 GLP-1R; for Emax: CHO cells, cAMP, normalized to maximum signal from GLP-1 (high) and DMSO (low), read-out: Emax GLP-1R

T2 sequence (P43220 24-463): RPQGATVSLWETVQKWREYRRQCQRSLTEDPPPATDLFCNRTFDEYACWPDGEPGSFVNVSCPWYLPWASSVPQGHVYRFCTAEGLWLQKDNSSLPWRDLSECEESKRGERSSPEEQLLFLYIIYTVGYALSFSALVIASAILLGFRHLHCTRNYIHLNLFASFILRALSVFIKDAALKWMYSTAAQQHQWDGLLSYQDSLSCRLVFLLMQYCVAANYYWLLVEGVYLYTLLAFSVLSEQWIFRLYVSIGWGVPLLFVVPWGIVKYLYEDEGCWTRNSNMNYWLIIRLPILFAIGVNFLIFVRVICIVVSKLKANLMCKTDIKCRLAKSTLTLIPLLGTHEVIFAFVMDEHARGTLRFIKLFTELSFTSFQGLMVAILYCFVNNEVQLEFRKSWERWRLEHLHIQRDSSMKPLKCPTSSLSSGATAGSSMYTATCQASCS

| SMILES | EC50 [1] | Emax [1] | EC50 [2] | EC50 [3] | EC50 [4] | Emax [4] |
| --- | --- | --- | --- | --- | --- | --- |
| CC[C@H](C)[C@H](NC(=O)[C@H](CC(C)C)NC(=O)[C@H](Cc1c[nH]c2ccccc12)NC(=O)[C@H](CCC(N)=O)NC(=O)[C@@H](NC(=O)[C@H](Cc1ccccc1)NC(=O)[C@H](C)NC(=O)[C@H](CCCCNC(=O)COCCOCCNC(=O)COCCOCCNC(=O)CC[C@H](NC(=O)CCCCCCCCCCCCCCCCCCC(=O)O)C(=O)O)NC(=O)[C@H](CCC(N)=O)NC(=O)[C@H](C)NC(=O)[C@@H](NC(=O)[C@H](CCCCN)NC(=O)[C@H](CC(=O)O)NC(=O)[C@H](CC(C)C)NC(=O)C(C)(C)NC(=O)[C@@H](NC(=O)[C@H](CO)NC(=O)[C@H](Cc1ccc(O)cc1)NC(=O)[C@H](CC(=O)O)NC(=O)[C@H](CO)NC(=O)[C@@H](NC(=O)[C@H](Cc1ccccc1)NC(=O)[C@@H](NC(=O)CNC(=O)[C@H](CCC(=O)O)NC(=O)CCNC(=O)C1(c2ccc(OC)cc2)CCCC1)[C@@H](C)O)[C@@H](C)O)[C@@H](C)CC)[C@@H](C)CC)C(C)C)C(=O)N[C@@H](C)C(=O)NCC(=O)NCC(=O)N1CCC[C@H]1C(=O)N[C@@H](CO)C(=O)N[C@@H](CO)C(=O)NCC(=O)N[C@@H](C)C(=O)N1CCC[C@H]1C(=O)N1CCC[C@H]1C(=O)N1CCC[C@H]1C(=O)N[C@@H](CO)C(N)=O [Compound 208] ({X59-βAla}-EGTFTSDYSI[Aib]LDKIAQK([AEEA-AEEA-γGlu-C20 diacid])AFVQWLIAGGPSSGAPPPS-NH2) | 1 to 10 nM | 109% | < 1000 nM | > 1000 nM | 1 to 10 nM | 111% |
| CC[C@H](C)[C@H](NC(=O)[C@H](CO)NC(=O)[C@H](CCCCNC(=O)COCCOCCNC(=O)COCCOCCNC(=O)CC[C@H](NC(=O)CCCCCCCCCCCCCCCCCCC(=O)O)C(=O)O)NC(=O)[C@H](CC(=O)O)NC(=O)[C@H](CO)NC(=O)[C@@H](NC(=O)[C@H](Cc1ccccc1)NC(=O)[C@@H](NC(=O)CNC(=O)[C@H](CCC(=O)O)NC(=O)CCNC(=O)[C@]1(c2ccccc2)CNC(=O)C1)[C@@H](C)O)[C@@H](C)O)C(=O)N[C@@H](Cc1ccc(O)cc1)C(=O)N[C@@H](CC(C)C)C(=O)N[C@@H](CC(=O)O)C(=O)N[C@@H](CCCCN)C(=O)N[C@@H](CCC(N)=O)C(=O)N[C@@H](C)C(=O)N[C@@H](C)C(=O)NC(C)(C)C(=O)N[C@@H](CCC(=O)O)C(=O)N[C@@H](Cc1ccccc1)C(=O)N[C@H](C(=O)N[C@@H](CC(N)=O)C(=O)N[C@@H](Cc1c[nH]c2ccccc12)C(=O)N[C@@H](CC(C)C)C(=O)N[C@@H](CC(C)C)C(=O)N[C@@H](C)C(=O)NCC(=O)NCC(=O)N1CCC[C@H]1C(=O)N[C@@H](CO)C(=O)N[C@@H](CO)C(=O)NCC(=O)N[C@@H](C)C(=O)N1CCC[C@H]1C(=O)N1CCC[C@H]1C(=O)N1CCC[C@H]1C(=O)N[C@@H](CO)C(N)=O)C(C)C (single isomer, unassigned) [Compound 129] | 10 to 100 nM | 106% | > 1000 nM | > 1000 nM | 1 to 10 nM | 108% |
| CC[C@H](C)[C@H](NC(=O)[C@H](CC(C)C)NC(=O)[C@H](Cc1c[nH]c2ccccc12)NC(=O)[C@H](CCC(N)=O)NC(=O)[C@@H](NC(=O)[C@H](Cc1ccccc1)NC(=O)[C@H](C)NC(=O)[C@H](CCCCNC(=O)COCCOCCNC(=O)COCCOCCNC(=O)CC[C@H](NC(=O)CCCCCCCCCCCCCCCCCCC(=O)O)C(=O)O)NC(=O)[C@H](CCC(N)=O)NC(=O)[C@H](C)NC(=O)[C@@H](NC(=O)[C@H](CCCCN)NC(=O)[C@H](CC(=O)O)NC(=O)[C@H](CC(C)C)NC(=O)C(C)(C)NC(=O)[C@@H](NC(=O)[C@H](CO)NC(=O)[C@H](Cc1ccc(O)cc1)NC(=O)[C@H](CC(=O)O)NC(=O)[C@H](CO)NC(=O)[C@@H](NC(=O)[C@H](Cc1ccccc1)NC(=O)[C@@H](NC(=O)CNC(=O)[C@H](CCC(=O)O)NC(=O)CCNC(=O)C(C)(C)n1cc(F)cn1)[C@@H](C)O)[C@@H](C)O)[C@@H](C)CC)[C@@H](C)CC)C(C)C)C(=O)N[C@@H](C)C(=O)NCC(=O)NCC(=O)N1CCC[C@H]1C(=O)N[C@@H](CO)C(=O)N[C@@H](CO)C(=O)NCC(=O)N[C@@H](C)C(=O)N1CCC[C@H]1C(=O)N1CCC[C@H]1C(=O)N1CCC[C@H]1C(=O)N[C@@H](CO)C(N)=O [Compound 132] ({X25-βAla}-EGTFTSDYSI[Aib]LDKIAQK([AEEA-AEEA-γGlu-C20 diacid])AFVQWLIAGGPSSGAPPPS-NH2) | 10 to 100 nM | 104% | > 1000 nM | < 1000 nM | < 0.1 nM | 98% |
| CC[C@H](C)[C@H](NC(=O)[C@H](CC(C)C)NC(=O)[C@H](Cc1c[nH]c2ccccc12)NC(=O)[C@H](CCC(N)=O)NC(=O)[C@@H](NC(=O)[C@H](Cc1ccccc1)NC(=O)[C@H](C)NC(=O)[C@H](CCCCNC(=O)COCCOCCNC(=O)COCCOCCNC(=O)CC[C@H](NC(=O)CCCCCCCCCCCCCCCCCCC(=O)O)C(=O)O)NC(=O)[C@H](CCC(N)=O)NC(=O)[C@H](C)NC(=O)[C@@H](NC(=O)[C@H](CCCCN)NC(=O)[C@H](CC(=O)O)NC(=O)[C@H](CC(C)C)NC(=O)C(C)(C)NC(=O)[C@@H](NC(=O)[C@H](CO)NC(=O)[C@H](Cc1ccc(O)cc1)NC(=O)[C@H](CC(=O)O)NC(=O)[C@H](CO)NC(=O)[C@@H](NC(=O)[C@H](Cc1ccccc1)NC(=O)[C@@H](NC(=O)CNC(=O)[C@H](CCC(=O)O)NC(=O)CCNC(=O)C(C)(C)c1cc(F)cc(C(=O)O)c1)[C@@H](C)O)[C@@H](C)O)[C@@H](C)CC)[C@@H](C)CC)C(C)C)C(=O)N[C@@H](C)C(=O)NCC(=O)NCC(=O)N1CCC[C@H]1C(=O)N[C@@H](CO)C(=O)N[C@@H](CO)C(=O)NCC(=O)N[C@@H](C)C(=O)N1CCC[C@H]1C(=O)N1CCC[C@H]1C(=O)N1CCC[C@H]1C(=O)N[C@@H](CO)C(N)=O [Compound 139] ({X9-βAla}-EGTFTSDYSI[Aib]LDKIAQK([AEEA-AEEA-γGlu-C20 diacid])AFVQWLIAGGPSSGAPPPS-NH2) | 10 to 100 nM | 109% | > 1000 nM | > 1000 nM | 1 to 10 nM | 102% |
| CC[C@H](C)[C@H](NC(=O)[C@H](CO)NC(=O)[C@H](Cc1ccc(O)cc1)NC(=O)[C@H](CC(=O)O)NC(=O)[C@H](CO)NC(=O)[C@@H](NC(=O)[C@H](Cc1ccccc1)NC(=O)[C@@H](NC(=O)CNC(=O)[C@H](CCC(=O)O)NC(=O)CCNC(=O)C(C)(C)c1cc(F)cc(C#N)c1)[C@@H](C)O)[C@@H](C)O)C(=O)N[C@@H](Cc1ccc(O)cc1)C(=O)N[C@@H](CC(C)C)C(=O)N[C@@H](CC(=O)O)C(=O)N[C@@H](CCCCN)C(=O)N[C@@H](CCCCNC(=O)COCCOCCNC(=O)COCCOCCNC(=O)CC[C@H](NC(=O)CCCCCCCCCCCCCCCCCCC(=O)O)C(=O)O)C(=O)N[C@@H](C)C(=O)N[C@@H](C)C(=O)NC(C)(C)C(=O)N[C@@H](CCC(=O)O)C(=O)N[C@@H](Cc1ccccc1)C(=O)N[C@H](C(=O)N[C@@H](CC(N)=O)C(=O)N[C@@H](Cc1c[nH]c2ccccc12)C(=O)N[C@@H](CC(C)C)C(=O)N[C@@H](CC(C)C)C(=O)N[C@@H](C)C(=O)NCC(=O)NCC(=O)N1CCC[C@H]1C(=O)N[C@@H](CO)C(=O)N[C@@H](CO)C(=O)NCC(=O)N[C@@H](C)C(=O)N1CCC[C@H]1C(=O)N1CCC[C@H]1C(=O)N1CCC[C@H]1C(=O)N[C@@H](CO)C(N)=O)C(C)C [Compound 114] ({Isobutyryl(2-(3-CN-5-F-Ph))-βAla}-EGTFTSDYSIYLDKK([AEEA-AEEA-γGlu-C20 diacid])AA[Aib]EFVNWLLAGGPSSGAPPPS-NH2) | 10 to 100 nM | 95% | > 1000 nM | > 1000 nM | 0.1 to 1 nM | 114% |
